Holding throughout (test): MIC in agar plate culture-dilution assay
Assay type in all cases: cell-based

Test [1] concerns Serratia marcescens No. 1. The following applies: Serratia marcescens No. 1; agar plate culture-dilution; read-out: MIC. The text has this: (§1) The compounds of the formula (I) and salts thereof of the present invention are new, and have high and broad antibacterial activity capable of inhibiting the growth of pathogenic microorganisms of a broad range including gram-positive and gram-negative bacteria. In order to show the usability of the compounds of the formula (I), the antibacterial activity of some typical compounds of the formula (I) was actually measured, and the results are given in the following Table-1.
(§2) MIC in agar plate culture-dilution assay (Y/ml)

Another test concerns Proteus rettgeri GN-624. To be noted: Providencia rettgeri, GN624; Proteus rettgeri GN-624; agar plate culture-dilution; read-out: MIC.
Description: as §1, §2

Test [2] deals with Staphylococcus aureus Smith (1). The following applies: Staphylococcus aureus Smith (1); agar plate culture-dilution; read-out: MIC.
Description: as §1, §2

In test [3] the test system is Pseudomonas aeruginosa E-2. To be noted: E2; Pseudomonas aeruginosa E-2; agar plate culture-dilution; read-out: MIC.
Description: as §1, §2

Test [4] deals with Citrobacter freundii GN-346. The following applies: GN346; Citrobacter freundii GN-346; agar plate culture-dilution; read-out: MIC.
Description: as §1, §2

Another test concerns Proteus vulgaris GN-76. To be noted: GN76; Proteus vulgaris GN-76; agar plate culture-dilution; read-out: MIC.
Description: as §1, §2

In test [5] the test system is Bacillus subtilis ATCC 6633. The following applies: ATCC6633; Bacillus subtilis ATCC 6633; agar plate culture-dilution; read-out: MIC.
Description: as §1, §2

Test [6] relates to Escherichia coli NIHJ JC-2. The following applies: NIHJJC2.
Description: as §1, §2

Test [7] deals with Klebsiella pneumoniae GN-69. The following applies: GN69; Klebsiella pneumoniae GN-69; agar plate culture-dilution; read-out: MIC.
Description: as §1, §2

The test system of test [8] is Pseudomonas aeruginosa M-0148. To be noted: M0148; Pseudomonas aeruginosa M-0148; agar plate culture-dilution; read-out: MIC.
Description: as §1, §2

Test [9] has as its system Enterobacter cloacae GN-7471. To be noted: GN7471; Enterobacter cloacae GN-7471; agar plate culture-dilution; read-out: MIC.
Description: as §1, §2

Test [10] relates to Staphylococcus aureus 209P JC-1. To be noted: Staphylococcus aureus 209P JC-1; agar plate culture-dilution; read-out: MIC.
Description: as §1, §2

Test [11] concerns Pseudomonas aeruginosa IAM-1007. To be noted: IAM1007; Pseudomonas aeruginosa IAM-1007; agar plate culture-dilution; read-out: MIC.
Description: as §1, §2

Values after ≈ are worked out from the molar mass of the structure shown.

The term MIC denotes the lowest concentration found to suppress growth. As for `C[n+]1cccc(SCC2=C(C(=O)[O-])N3C(=O)[C@@H](NC(=O)C(NC(=O)c4cc(=O)c(O)cn4O)c4csc(N)n4)[C@H]3SC2)c1` (stereo partly drawn) [Example 4, (6R,7R)7-[(RS)2-(2-Aminothiazol-4-yl)-2-(1,5-dihydroxy-4-pyridone-2-carboxamido)acetamido]-3-(1-methylpyridinium-3-yl)thiomethyl-ceph-3-em-4-carboxylate], the minimum inhibitory concentration (MIC) in [1] is 0.2 µg/mL (≈ 0.31 µM); in the test on Proteus rettgeri GN-624 it was 0.2 µg/mL (≈ 0.31 µM); in test [2] it was 3.13 µg/mL (≈ 4.85 µM); in [3] it was 0.1 µg/mL (≈ 0.155 µM); in test [4], 6.25 µg/mL (≈ 9.68 µM); in the test with Proteus vulgaris GN-76 it was 0.39 µg/mL (≈ 0.604 µM). Also, the MIC turned out to be 12.5 µg/mL (≈ 19.4 µM) in test [5]; 0.1 µg/mL (≈ 0.155 µM) in test [6]; 0.1 µg/mL (≈ 0.155 µM) in [7]; 0.39 µg/mL (≈ 0.604 µM) in test [8]; 3.13 µg/mL (≈ 4.85 µM) in test [9]; 3.13 µg/mL (≈ 4.85 µM) in [10]. In test [11], the MIC was determined as 0.2 µg/mL (≈ 0.31 µM).
On to `Nc1nc(C(NC(=O)c2cc(=O)c(O)cn2O)C(=O)N[C@@H]2C(=O)N3C(C(=O)[O-])=C(CSc4cc[n+](CCO)cc4)CS[C@H]23)cs1` (stereo partly drawn) [Example 5, (6R,7R)7-[(RS)2-(2-Aminothiazol-4-yl)-2-(1,5-dihydroxy-4-pyridone-2-carboxamido)acetamido]-3-[1-(2-hydoroxyethyl)pyridinium-4-yl]thiomethyl-ceph-3-em-4-carboxylate], for which the minimal inhibitory concentration (MIC) turned out to be 0.2 µg/mL (≈ 0.296 µM) in test [1]; 0.1 µg/mL (≈ 0.148 µM) in the test with Proteus rettgeri GN-624; 3.13 µg/mL (≈ 4.63 µM) in [2]; 0.05 µg/mL (≈ 0.074 µM) in test [3]; 0.78 µg/mL (≈ 1.15 µM) in test [4]; 0.39 µg/mL (≈ 0.577 µM) with Proteus vulgaris GN-76. Further, the MIC in test [5] came to 3.13 µg/mL (≈ 4.63 µM); in test [6], 0.05 µg/mL (≈ 0.074 µM); in test [7], 0.05 µg/mL (≈ 0.074 µM); in test [8], 0.78 µg/mL (≈ 1.15 µM); in test [9], 1.56 µg/mL (≈ 2.31 µM); in test [10] it was 1.56 µg/mL (≈ 2.31 µM). Also, the MIC in test [11] stood at 0.1 µg/mL (≈ 0.148 µM).
On to `NC(=O)C[n+]1ccc(SCC2=C(C(=O)[O-])N3C(=O)[C@@H](NC(=O)C(NC(=O)c4cc(=O)c(O)cn4O)c4csc(N)n4)[C@H]3SC2)cc1` (stereo partly drawn) [Example 6, (6R,7R)7-[(RS)2-(2-Aminothiazol-4-yl)-2-(1,5-dihydroxy-4-pyridone-2-carboxamido)acetamido]-3-(1-carbamoylmethylpyridinium-4-yl)thiomethyl-ceph-3-em-4-carboxylate], for which the MIC came out at 0.2 µg/mL (≈ 0.29 µM) in test [1]; 0.2 µg/mL (≈ 0.29 µM) in the test with Proteus rettgeri GN-624; 3.13 µg/mL (≈ 4.54 µM) in [2]; 0.05 µg/mL (≈ 0.0726 µM) in [3]; 1.56 µg/mL (≈ 2.27 µM) in [4]; 0.2 µg/mL (≈ 0.29 µM) in the test with Proteus vulgaris GN-76. Moreover, the MIC came out at 3.13 µg/mL (≈ 4.54 µM) in test [5]; 0.05 µg/mL (≈ 0.0726 µM) in test [6]; 0.1 µg/mL (≈ 0.145 µM) in [7]; 0.78 µg/mL (≈ 1.13 µM) in test [8]; 1.56 µg/mL (≈ 2.27 µM) in test [9]; 1.56 µg/mL (≈ 2.27 µM) in test [10]. Further, in test [11], the MIC stood at 0.1 µg/mL (≈ 0.145 µM).
With `Nc1nc(C(NC(=O)c2cc(=O)c(O)cn2O)C(=O)N[C@@H]2C(=O)N3C(C(=O)[O-])=C(CSc4cc[n+](C5CC5)cc4)CS[C@H]23)cs1` (stereo partly drawn) [Example 8, (6R,7R)7-[(RS)2-(2-Aminothiazol-4-yl)-2-(1,5-dihydroxy-4-pyridone-2-carboxamido)acetamido]-3-(1-cycloproylpyridinium-4-yl)thiomethyl-ceph-3-em-4-carboxylate], the minimal inhibitory concentration (MIC) amounted to 0.2 µg/mL (≈ 0.298 µM) in test [1]; 0.1 µg/mL (≈ 0.149 µM) in the test on Proteus rettgeri GN-624; 1.56 µg/mL (≈ 2.32 µM) in [2]; 0.1 µg/mL (≈ 0.149 µM) in test [3]; 0.78 µg/mL (≈ 1.16 µM) in [4]; 0.2 µg/mL (≈ 0.298 µM) in the test with Proteus vulgaris GN-76. Further, the MIC is 3.13 µg/mL (≈ 4.66 µM) in test [5]; 0.05 µg/mL (≈ 0.0744 µM) in test [6]; 0.05 µg/mL (≈ 0.0744 µM) in test [7]; 1.56 µg/mL (≈ 2.32 µM) in test [8]; 1.56 µg/mL (≈ 2.32 µM) in test [9]; 1.56 µg/mL (≈ 2.32 µM) in test [10]. In [11], the minimum inhibitory concentration (MIC) stood at 0.2 µg/mL (≈ 0.298 µM).

These data come from patent US4758557A, “Cephalosporin derivatives and bactericides containing the same” (Meiji Seika Kaisha, Ltd., priority 1985, dated 1988).
